In patent US8143245B2 (Pierre Fabre Medicament, priority 2006, dated 2012):
Marks after values point to notes of the source that are not given here. Values belong to the molecule of their own block, whether it stands above or below them.

Assays:
[1] = tested on: pilocarpine-induced sialorrhea in the rat; test: Pilocarpine-induced sialorrhea, inhibition of salivary secretion after p.o. administration; assay type: in vivo
Experimental: For the purpose of evaluating anticholinergic activity in the validated model of pilocarpine-induced sialorrhea in the rat, groups of animals were fasted and the next day the products were administered orally 90 minutes before intra-peritoneal injection of pilocarpine (0.5 mg.kg^-1). The compounds tested were administered in doses of 2.5, 5 and 10 mg.kg^-1. […] The animals were anaesthetized and then the salivary secretion was collected for 60 minutes, every ten minutes. The samples were then dried and weighed.

[2] = target: T1, human M1 muscarinic receptor (Homo sapiens, UniProt P11229); test: V0162 receptor binding in vitro, CHO cells transfected with human M1, tritiated pirenzepine; settings: M1(h)
T1 sequence (P11229 1-460): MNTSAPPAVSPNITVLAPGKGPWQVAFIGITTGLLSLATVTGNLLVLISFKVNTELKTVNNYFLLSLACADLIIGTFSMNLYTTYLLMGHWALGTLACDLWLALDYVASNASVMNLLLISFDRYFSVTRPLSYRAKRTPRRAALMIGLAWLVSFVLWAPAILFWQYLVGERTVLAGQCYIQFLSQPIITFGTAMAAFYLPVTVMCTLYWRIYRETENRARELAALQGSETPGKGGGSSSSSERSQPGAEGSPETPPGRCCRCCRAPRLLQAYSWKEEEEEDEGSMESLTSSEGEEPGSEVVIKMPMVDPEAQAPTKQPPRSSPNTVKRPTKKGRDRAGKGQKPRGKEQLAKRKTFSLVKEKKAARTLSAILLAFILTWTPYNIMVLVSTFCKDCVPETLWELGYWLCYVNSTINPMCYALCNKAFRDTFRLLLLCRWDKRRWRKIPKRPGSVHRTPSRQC
Description: (§1) The purpose of this study is to determine an affinity constant for the compound with respect to the three classes of human muscarinic receptors in vitro. The model chosen is the CHO cell stably transfected with cDNAs coding for each of the three human muscarinic receptors. […] Binding with respect to the receptors is defined as follows: the difference between overall binding and non-specific binding determined in the presence of excess cold ligand. The results are expressed as a percentage of the optimal binding obtained with the model ligand (100%). […] The inhibition constants (Ki) were calculated by means of the Cheng Prusoff equation (Ki=IC50/(1+L/KD)); where L is the radioligand concentration and KD the affinity of the radioligand for the receptor.

[3] = target: T2, human M3 muscarinic receptor (Homo sapiens, UniProt P20309); test: V0162 receptor binding in vitro, CHO cells transfected with human M3, 4-DAMP; settings: M3 (h)
T2 construct: expressed in transfected cells; host or cells: CHO cells, stably transfected
Description: as §1

[4] = Anticholinergic activity in vivo by intravenous administration
[5] = tested on: increase in intravesical pressure induced by bethanechol; test: Intravesical pressure (cystomanometry) after bethanechol; assay type: in vivo; settings: compared to oxybutyrine
Experimental: The objective of this study was to measure intravesical pressure and salivation, in the animal, for the purpose of testing the uroselectivity of the anti-muscarinics, when they are administered orally and vaginally. In order to evaluate intravesical pressure, the bladders of the animals were catheterized in order to make possible recording (cystomanometry: continuous recording of the vesical pressure). The products to be tested were administered either per os at a dose of 5 mg.Kg^-1 or by local application of a suspension of […] at 0.4% in a vehicle with a base of cyclodextrin and arginine. The jugular vein was also cannulated in order to administer a muscarinic agonist: bethanechol (200 μg/kg, iv). At each administration of bethanechol, the variation of vesical pressure (ΔPV, mmHg) and the quantity of saliva (mg) were evaluated and quantified. The positive control was made up of a group of animals treated with oxybutyrine (Ditropan®; 10, 100 and 1000 μg/kg, iv).

[6] = tested on: explants taken from the guinea pig (contractions induced by acetylcholine); test: Anticholinergic effect ex vivo, contractions induced by acetylcholine in explants; settings: for Response to Acetylcholine Max. Response (%): test curve, mean ± sem, n = 6
Experimental: The purpose of these experiments was to confirm the anticholinergic activity of […] on a living organ. In order to do so, explants taken from the guinea pig were kept alive. The morphology of the preparations was homogeneous from batch to batch. Each explant was placed in a survival chamber and immersed in a physiological solution of composition (mM): NaCl (118); KCl (4.7); […] CaCl2 (2.5); […] NaHCO3 (25); glucose (11), at a temperature of 37° C. and with a pH of 7.4. Before the test, the following agents were dispersed in the survival buffer in order to block non-specific responses to acetylcholine: […] (10^-6 M) to block β2-adrenergic responses; cimetidine (10^-5 M) to block type 2 histaminergic responses; methysergide (10^-6 M) to block serotoninergic responses and indomethacine (3×10^-6 M) to prevent the appearance of muscle tonus due to a release of prostaglandins by the preparation itself. At the time of acquisition, the tissues were connected to […] in order to continuously record the variations in tension. After 60 minutes of calibration of the preparations, the tissues were exposed to variable concentrations of […]. The contractions induced by acetylcholine as dose responses were carried out in order to determine the response of the preparation to the stimulation in the absence of the putative inhibitor.

[7] = Transmucosal passage: repeated nasal administration of V0162 suspension, circulating level and tolerance; assay type: in vivo, rabbit; settings: for Level of V0162: rabbit plasma, nasal 0.4% suspension twice per day
Experimental: 48 rabbits were treated nasally daily for 28 days with a suspension titrated at 0.4% mass/volume. […] Each group was made up of males and females equally. Nasal administration of the suspension was carried out twice per day for 28 days. Plasma samples were taken on D1, D2, D7, D28, D35. The samples were analyzed by an LC/MS/MS method validated by assay of V0162.

[8] = tested on: salivation; settings: preclinical animal studies; cited from earlier work
[9] = tested on: M3 muscarinic receptors versus M2 muscarinic receptors; settings: cited from earlier work
[10] = p.o. 5 mg·kg^−1, comparison of racemic mixture and enantiomers (Table 4)
[11] = p.o. 2.5 mg·kg^−1, 90 min before pilocarpine
[12] = p.o. 10 mg·kg^−1, 90 min before pilocarpine

T2 sequence (P20309 whole entry): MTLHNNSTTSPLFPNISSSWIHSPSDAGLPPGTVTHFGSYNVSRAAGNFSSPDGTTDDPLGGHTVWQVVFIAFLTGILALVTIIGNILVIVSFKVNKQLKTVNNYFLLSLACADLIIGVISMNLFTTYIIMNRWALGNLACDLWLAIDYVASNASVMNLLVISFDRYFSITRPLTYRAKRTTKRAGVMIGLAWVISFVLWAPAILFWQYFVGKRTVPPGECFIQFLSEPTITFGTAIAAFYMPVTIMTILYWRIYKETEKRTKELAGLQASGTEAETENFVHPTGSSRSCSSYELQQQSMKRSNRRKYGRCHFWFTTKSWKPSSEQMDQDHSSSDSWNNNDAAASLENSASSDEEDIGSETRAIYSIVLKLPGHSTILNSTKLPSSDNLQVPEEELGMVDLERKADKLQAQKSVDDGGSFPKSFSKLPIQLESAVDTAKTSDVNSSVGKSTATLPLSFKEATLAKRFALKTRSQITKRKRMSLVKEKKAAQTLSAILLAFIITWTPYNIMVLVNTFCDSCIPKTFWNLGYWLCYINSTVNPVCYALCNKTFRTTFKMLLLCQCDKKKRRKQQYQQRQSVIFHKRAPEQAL

nH (Hill coefficient) [2]: 0.8 | nH (Hill coefficient) [3]: 1.2
Structure (SMILES): c1ccc2c(c1)Sc1ccccc1N2CC1CN2CCC1CC2 (racemic) [10-[(3R,3S)-1-azabicyclo[2.2.2]oct-3-ylmethyl]-10H-phenothiazine, reference compound]
Inhibition (%) [1, 10]: 73* %

nH (Hill coefficient) [2]: 1.1 | nH (Hill coefficient) [3]: 1.0
Structure (SMILES): c1ccc2c(c1)Sc1ccccc1N2C[C@@H]1CN2CCC1CC2 [10-[(3S)-1-azabicyclo[2.2.2]oct-3-ylmethyl]-10H-phenothiazine, reference compound]
Inhibition (%) [1, 10]: −4% | Anticholinergic activity in vivo [4]: does not demonstrate clear activity

Structure (SMILES): CN1[C@@H]2CC[C@H]1C[C@@H](OC(=O)C(CO)c1ccccc1)C2 (some centres unmarked) [Atropine, reference compound]
Inhibition (%) ([1]; 1 mg·kg^−1, positive control): 98* %

Structure (SMILES): c1ccc2c(c1)Sc1ccccc1N2C[C@H]1CN2CCC1CC2 [V0162, 10-[(3R)-1-azabicyclo[2.2.2]oct-3-ylmethyl]-10H-phenothiazine]
Inhibition (%) [1, 11]: 29% | Secretion [1, 11]: 735.6 mg | Secretion ([1]; p.o. 5 mg·kg^−1, 90 min before pilocarpine): 338.9 mg | Inhibition (%) ([1]; p.o. 5 mg·kg^−1, 90 min before pilocarpine (Table 3)): 67* % | Inhibition (%) [1, 10]: 77* % | Inhibition (%) [1, 12]: 95* % | Secretion [1, 12]: 45.1 mg | Anticholinergic activity in vivo [4]: anticholinergic by intravenous administration | Increase in intravesical pressure induced by bethanecol ([5]; local application of 0.4% suspension, bethanechol 200 μg/kg iv): significantly reduces the increase in intravesical pressure | Increase in intravesical pressure induced by bethanecol ([5]; per os 5 mg.Kg^−1, bethanechol 200 μg/kg iv): significantly reduces the increase in intravesical pressure | Response to Acetylcholine Max. Response (%) ([6]; V0162 30 nM): 98 ± 1% | Response to Acetylcholine Max. Response (%) ([6]; V0162 100 nM): 98 ± 1% | Response to Acetylcholine Max. Response (%) ([6]; V0162 300 nM): 98 ± 1% | Mode of action towards acetylcholine ([6]; ex vivo model): behaves like an antagonistic competitor of acetylcholine | Level of V0162 ([7]; Day 1/4 hours after administration): 0.88 ng/mL | Level of V0162 ([7]; Day 1/before administration): BLQ | Level of V0162 ([7]; Day 2/before administration): 0.22 ng/mL | Level of V0162 ([7]; Day 7/before administration): 0.41 ng/mL | Level of V0162 ([7]; Day 28/4 hours after administration): 1.35 ng/mL | Level of V0162 ([7]; Day 28/24 hours after administration): 0.23 ng/mL | Level of V0162 ([7]; Day 35/before administration): BLQ | Toxic effects (histological plane, respiratory rhythm, heart rate, behaviour) ([7]; rabbit, in vivo): do not lead to toxic effects | Effects on the nasal mucosa ([7]; rabbit, nasal 0.4% suspension twice per day for 28 days): does not induce deleterious effects on the nasal mucosa | Circulating level ([7]; rabbit, nasal administration of a suspension): ~4 nM

Structure (SMILES): NC(=O)C(c1ccccc1)(c1ccccc1)[C@@H]1CCN(CCc2ccc3c(c2)CCO3)C1 [darifenacine]
Effect on salivation [8]: reduce salivation | Affinity for M3 muscarinic receptors higher than for M2 muscarinic receptors [9]: 7 times | Selectivity between M3 and M2 receptor [9]: more selective with respect to the M3 receptor than with respect to the M2

Structure (SMILES): CCN(CC)CC#CCOC(=O)C(O)(c1ccccc1)C1CCCCC1 (centres unmarked) [oxybutynine]
Effect on salivation [8]: reduce salivation

Structure (SMILES): Cc1ccc(O)c([C@H](CCN(C(C)C)C(C)C)c2ccccc2)c1 [tolterodine]
Effect on salivation [8]: reduces salivation less | Selectivity between M3 and M2 receptor [9]: more specific for the M2 receptor than for the M3 receptor
